Data: ChEMBL document CHEMBL1933051, “Cytotoxic bistetrahydrofuran annonaceous acetogenins from the seeds of Annona squamosa” (J Nat Prod, 2011)
Converted amounts (≈) assume the structure as drawn.

Tests used:
Format in all cases: functional, cell-based
A549 = assay: Cytotoxicity against human A549 cells by MTT assay
HeLa = assay: Cytotoxicity against human HeLa cells by MTT assay
MCF7 = assay: Cytotoxicity against human MCF7 cells by MTT assay
HepG2 = assay: Cytotoxicity against human HepG2 cells by MTT assay
SMMC-7721 = assay: Cytotoxicity against human SMMC7721 cells by MTT assay
MKN-45 = assay: Cytotoxicity against human MKN45 cells by MTT assay

SMILES | IC50 (A549) [µg/mL] | IC50 (HeLa) [µg/mL] | IC50 (MCF7) [µg/mL] | IC50 (HepG2) [µg/mL] | IC50 (SMMC-7721) [µg/mL] | IC50 (MKN-45) [µg/mL]
CCCCCCCCCCCC(O)CCC[C@H](O)[C@H]1CC[C@H]([C@H]2CC[C@H]([C@H](O)CCCCCCCC3=C[C@H](C)OC3=O)O2)O1 (relative stereo) | 0.012 (≈ 0.0193 µM) | 0.025 (≈ 0.0401 µM) | 0.052 (≈ 0.0835 µM) | 0.022 (≈ 0.0353 µM) | 0.057 (≈ 0.0915 µM) | 0.042 (≈ 0.0674 µM)
CCCC[C@H](O)[C@H](O)[C@@H]1CC[C@@H]([C@H](O)CC[C@H](O)[C@@H]2CC[C@@H](CCCCCCCCCCCCCCC3=C[C@H](C)OC3=O)O2)O1 (relative stereo) | 0.31 (≈ 0.485 µM) | 0.57 (≈ 0.892 µM) | 0.5 (≈ 0.783 µM) | 0.17 (≈ 0.266 µM) | 0.11 (≈ 0.172 µM) | 0.14 (≈ 0.219 µM)
CCCCC[C@H](O)[C@@H]1CC[C@@H]([C@H](O)CC[C@H](O)[C@@H]2CC[C@@H](CCCCCCCCCCCC[C@@H](O)CC3=C[C@H](C)OC3=O)O2)O1 (relative stereo) | 0.68 (≈ 1.06 µM) | 1.5 (≈ 2.35 µM) | 0.75 (≈ 1.17 µM) | 0.8 (≈ 1.25 µM) | 0.39 (≈ 0.61 µM) | 0.59 (≈ 0.923 µM)
CCCCCCCCCC[C@@H](O)[C@@H]1CC[C@@H]([C@@H]2CC[C@@H]([C@H](O)CCCCCCCCCC(O)CC3=CC(C)OC3=O)O2)O1 (stereo partly drawn) [BULLATACIN] | 0.033 (≈ 0.0542 µM) | 0.034 (≈ 0.0558 µM) | 0.043 (≈ 0.0706 µM) | 0.032 (≈ 0.0526 µM) | 0.0048 (≈ 0.00788 µM) | 0.053 (≈ 0.087 µM)
O=c1[nH]cc(F)c(=O)[nH]1 [FLUOROURACIL] | 0.32 (≈ 2.46 µM) | 0.14 (≈ 1.08 µM) | 0.22 (≈ 1.69 µM) | 0.0082 (≈ 0.063 µM) | 0.023 (≈ 0.177 µM) | 0.36 (≈ 2.77 µM)
CCCCCC[C@@H](O)CCC[C@H](O)[C@@H]1CC[C@@H]([C@H](O)CC[C@@H](O)[C@@H]2CC[C@@H](CCCCCCCCCC3=C[C@@H](C)OC3=O)O2)O1 [Squamostatin-A] | 0.21 (≈ 0.329 µM) | 0.45 (≈ 0.704 µM) | 0.15 (≈ 0.235 µM) | 0.83 (≈ 1.3 µM) | 0.49 (≈ 0.767 µM) | 0.93 (≈ 1.46 µM)
CCCCCCCCCC[C@H](O)[C@@H]1CC[C@@H]([C@H](O)CC[C@@H](O)[C@@H]2CC[C@@H](CCCCCCCCCC3=C[C@@H](C)OC3=O)O2)O1 [Squamostatin-D] | 0.046 (≈ 0.0738 µM) | 0.1 (≈ 0.161 µM) | 0.11 (≈ 0.177 µM) | 0.56 (≈ 0.899 µM) | 0.25 (≈ 0.401 µM) | 0.87 (≈ 1.4 µM)
CCCCCCCCCC[C@@H](O)[C@H]1CC[C@H]([C@H]2CC[C@H]([C@H](O)CCCCCCCCC[C@H](O)CCC3=C[C@H](C)OC3=O)O2)O1 [UVARIGRANDIN A] | 0.08 (≈ 0.128 µM) | 0.07 (≈ 0.112 µM) | 0.096 (≈ 0.154 µM) | 0.78 (≈ 1.25 µM) | 0.0029 (≈ 0.00466 µM) | 0.069 (≈ 0.111 µM)
